In patent US4663323A, “Tetrazole derivatives, anti-ulcer composition containing the same and method for treating ulcers” (Otsuka Pharmaceutical Co., Ltd., priority 1984, dated 1987):
Where two headings read alike, the source gives them in different places.

How the values were obtained:
[1] = test system: Stress Ulcer; test: Stress Ulcer; type: in vivo, male Wistar rats; conditions: oral, 1×10^-3 mole in 0.5% CMC, before restraint and water dipping at 23° C. for 7 hours
Method: After male Wistar rats weighing about 170 g was fasted for 24 hours, the rats were restrained in a stress cage and dipped in water bath at 23° C. till chest of the animals. After 7 hours, the rats were killed and the stomach was isolated. Into the isolated stomach 10% formalin (8 ml) was poured and settled. The stomach was cut open at the greater curvature, and the length of each ulcer on the membrane was measured. Sum of the length of all ulcers was shown as ulcer index (UI). The test compound was orally administered to the rats before restraint in a stress cage in the form of 0.5% CMC suspension in a concentration of 1×10^-3 mole. As a control, only the solvent (CMC solution) was administered likewise.
The inhibitory ratio (%) of stress ulcer of the test compounds was calculated by the following equation: [formula]
(§1) In the table, the inhibitory ratio (%) was evaluated as follows: […]

[2] = test system: Indomethacin-Induced Ulcer; test: Indomethacin-Induced Ulcer; type: in vivo, male Wistar rats; conditions: oral, 3×10^-4 mole in 0.5% CMC, 30 min before indomethacin 20 mg/kg s.c.
Method: After male Wistar rats weighing about 160 g was fasted for 24 hours, indomethacin was subcutaneously administered to the rats in a dose of 20 mg/kg in the form of a suspension in a mixture of 0.5% CMC and a small amount of Tween 80 (i.e. polyoxyethylene sorbitan monooleate). After 5 hours, the rats were killed and the stomach was isolated. Into the isolated stomach 10% formalin (8 ml) was poured and settled. The stomach was cut open at the greater curvature, and the length of each ulcer on the membrane was measured, based on which results the inhibitory ratio of the indomethacin-induced ulcer of the test compounds was calculated in the same manner as in Pharmacological Test 2. The test compound was orally administered to the rats in a concentration of 3×10^-4 mole in the form of 0.5% CMC suspension 30 minutes before the administration of indomethacin.
as §1

[3] = test system: Acetic Acid-Induced Ulcer; test: Acetic Acid-Induced Ulcer; type: in vivo, Male Wistar rats; conditions: oral, twice a day for 12 days
Method: Male Wistar rats were used. Under anestherization, the abdomen of rats were opened to expose stomach, and then 30% aqueous acetic acid (0.015 ml) was injected below serous membrane which was located at boundary area of true gastric gland and pyloric glands and thereafter the abdomen was closed, by which an experimental ulcer was induced.
The test compound was orally administered in the dose as shown in Table 3 in the form of 0.5% CMC suspension or solution twice a day for 12 days after the acetic acid-induced ulcer was produced. As a control, only the solvent (CMC solution) was administered likewise.
After the reproduced mucous membrane was removed around the ulcers, the open area of ulcers was measured with a micrometer, and the sum of ulcer area was shown as ulcer index (UI). The inhibitory ratio (%) of acetic acid-induced ulcer of the test compounds was calculated in the same manner as in Pharmacological Test 2.
as §1

[4] = Acute Toxicity; conditions: rat, in vivo, po, male Wistar rats
Method: The test compounds were orally administered to male Wistar rats, and the half lethal dose (LD50) was measured.

[5] = test system: gastric juice secretion; test: Shay rat pylorus ligation method (gastric juice secretion-inhibiting activity); type: in vivo, male Wistar rats; conditions: sc, 4 h, 100 mg/kg s.c., 30 min before pylorus ligation, measured 4 hours after ligation
Method: The pharmacological activities of the compouns (I) were tested by a Shay rat pylorus ligation method (cf. H. Shay et al: Gastroenterol., Vol. 5, page 43, 1945) which is the most popular method for testing of gastric juice secretion-inhibiting activity. The test was carried out by using male Wistar rats, weighing about 170 g and fasting for 24 hours.
Test compounds were administered 30 minutes before the pylorus ligation in a dose of 100 mg/kg in subcutaneous route, and the volume, total acidity and/or pepsin activity of the gastric juice were measured 4 hours after the ligation. As a control, a saline solution was administered instead of the test compound. The inhibitory ratio (%) of the test compounds were calculated when the inhibitory activities of the control were counted as zero (0).
as §1

[6] = saline control = 0, read-out: Inhibitory ratio, Pepsin activity
[7] = saline control = 0, read-out: Inhibitory ratio, Total acidity
[8] = saline control = 0, read-out: Inhibitory ratio, Volume of gastric juice

Row | Compound | Inhibitory ratio of stress ulcer [1] | Inhibitory ratio of indomethacin-induced ulcer [2] | Inhibitory ratio of acetic acid-induced ulcer ([3]; 20 mg/kg.day) | LD50 [4] | inhibition in vivo at 100 mg/kg [5, 6] | inhibition in vivo at 100 mg/kg [5, 7] | inhibition in vivo at 100 mg/kg [5, 8] | Inhibitory ratio of acetic acid-induced ulcer ([3]; 3 × 10^-5 mole/kg.day)
1 | CCCCNC(=O)CCCCc1nnnn1-c1ccccc1 [Compound 47, N-(n-Butyl)-5-(1-phenyl-1,2,3,4-tetrazol-5-yl)valeramide] | + (30 to less than 60%) | + (30 to less than 60%) |  |  |  |  |  | 
2 | N,N-Dicyclohexyl-5-(1-methyl-1,2,3,4-tetrazol-5-yl)thio-butyramide [Compound 58] |  |  | + (30 to less than 60%) |  |  |  |  | 
3 | CCNC(=O)CCCSCc1nnnn1CC [Compound 17, N-Ethyl-4-(1-ethyl-1,2,3,4-tetrazol-5-yl)-methylthio-butyramide] | + (30 to less than 60%) |  |  | > 500 mg/kg |  |  |  | 
4 | CN(C)C(=O)CCCSc1nnnn1C [Compound 28, N,N-Dimethyl-4-(1-methyl-1,2,3,4-tetrazol-5-yl)thio-butyramide] |  |  | + (30 to less than 60%) |  | 10 to 50% | > 50% | > 50% | 
5 | CCN(C(=O)CCCSc1nnnn1C)C1CCCCC1O (centres unmarked) [Compound 8, N-Ethyl-N-(2-hydroxycyclohexyl)-4-(1-methyl-1,2,3,4-tetrazol-5-yl)thio-butyramide] |  |  |  | > 500 mg/kg | 10 to 50% | 10 to 50% | 10 to 50% | 
6 | Cn1nnnc1SCCCC(=O)NC1CCCCC1 [Compound 6, N-Cyclohexyl-4-(1-methyl-1,2,3,4-tetrazol-5-yl)thio-butyramide] |  |  |  | > 500 mg/kg | 10 to 50% | 10 to 50% | 10 to 50% | 
7 | N-Ethyl-N-cyclooctyl-5-(1-methyl-1,2,3,4-tetrazol-5-yl)thio-butyramide [Compound 56] |  |  | + (30 to less than 60%) |  |  |  |  | 
8 | CN(C)c1ccc(NC(=O)CCCSc2nnnn2C)cc1 [Compound 7, N-[4-(N,N-dimethylamino)phenyl]-4-(1-methyl-1,2,3,4-tetrazol-5-yl)thio-butyramide] | ++ (more than 60%) |  |  | > 500 mg/kg | 10 to 50% | 10 to 50% | > 50% | 
9 | CCn1nnnc1CSCCC(N)=O [Compound 19, 3-(1-Ethyl-1,2,3,4-tetrazol-5-yl)methylthio-propionamide] |  |  |  | > 500 mg/kg |  |  |  | + (30 to less than 60%)
10 | CCCCN(C(=O)CCCSc1nnnn1C)C1CCCCC1 [Compound 55, N-Cyclohexyl-N-butyl-5-(1-methyl-1,2,3,4-tetrazol-5-yl)thio-butyramide] |  |  | + (30 to less than 60%) |  |  |  |  | 
11 | COc1ccc(CCNC(=O)CCCSc2nnnn2C)cc1OC [Compound 26, N-[2-(3,4-Dimethoxyphenyl)ethyl]-4-(1-methyl-1,2,3,4-tetrazol-5-yl)thio-butyramide] |  |  | + (30 to less than 60%) |  | < 10% | 10 to 50% | > 50% | 
12 | CCc1ccc(-n2nnnc2CSCCC(=O)N(CC)CC)cc1 [Compound 12, N,N-Diethyl-3-[1-(4-ethylphenyl)-1,2,3,4-tetrazol-5-yl]methylthio-propionamide] |  |  |  | > 500 mg/kg | 10 to 50% | 10 to 50% | 10 to 50% | 
13 | CCN(C(=O)CCCSc1nnnn1C)C1CCCCC1 [Compound 2, N-Ethyl-N-cyclohexyl-4-(1-methyl-1,2,3,4-tetrazol-5-yl)thio-butyramide] |  |  | + (30 to less than 60%) | > 500 mg/kg | > 50% | > 50% | > 50% | 
14 | CCNC(=O)CCSCc1nnnn1-c1ccccc1 [Compound 16, N-Ethyl-3-(1-phenyl-1,2,3,4-tetrazol-5-yl)-methylthio-propionamide] | + (30 to less than 60%) |  |  | > 500 mg/kg |  |  |  | 
15 | COC(=O)CCCSc1nnnn1C [Compound 37, Methyl 4-(1-methyl-1,2,3,4-tetrazol-5-yl)-thio-butyrate] |  |  | + (30 to less than 60%) |  |  |  | 10 to 50% | 
16 | CCN(C(=O)CCCCSc1nnnn1C)C1CCCCC1 [Compound 3, N-Ethyl-N-cyclohexyl-5-(1-methyl-1,2,3,4-tetrazol-5-yl)thio-valeramide] |  |  |  | > 500 mg/kg | 10 to 50% | 10 to 50% | > 50% | 
17 | CCN(C(=O)CCCSc1nnnn1C)c1ccccn1 [Compound 10, N-Ethyl-N-(2-pyridyl)-4-(1-methyl-1,2,3,4-tetrazol-5-yl)thio-butyramide] |  |  |  | > 500 mg/kg |  | 10 to 50% |  | 
18 | Cn1nnnc1SCCCC(=O)NCc1ccco1 [Compound 13, N-Furfuryl-4-(1-methyl-1,2,3,4-tetrazol-5-yl)thio-butyramide] |  |  |  | > 500 mg/kg | 10 to 50% | 10 to 50% | 10 to 50% | 
19 | CCN(CC)C(=O)CCCSc1nnnn1C [Compound 1, N,N-Diethyl-4-(1-methyl-1,2,3,4-tetrazol-5-yl)thio-butyramide] | ++ (more than 60%) |  |  | > 500 mg/kg | > 50% | > 50% | > 50% | 
20 | COc1ccc(CCN(C(=O)CCCSc2nnnn2C)C2CCCCC2)cc1OC [Compound 11, N-Cyclohexyl-N-[2-(3,4,-dimethoxyphenyl)-ethyl]-4-(1-methyl-1,2,3,4-tetrazol-5-yl)thio-butyramide] |  |  |  | > 500 mg/kg | 10 to 50% | 10 to 50% | 10 to 50% | 
21 | CCN(CC)C(=O)CCCCc1nnnn1C1CCCCC1 [Compound 5, N,N-Diethyl-5-(1-cyclohexyl-1,2,3,4-tetrazol-5-yl)valeramide] |  |  |  | > 500 mg/kg | 10 to 50% | 10 to 50% | 10 to 50% | 
22 | CN(Cc1cccs1)C(=O)CCCSc1nnnn1C [Compound 39, N-Methyl-N-(2-thienylmethyl)-4-(1-methyl-1,2,3,4-tetrazol-5-yl)thio-butyramide] |  | + (30 to less than 60%) |  |  |  |  | > 50% | 
23 | CCN(C(=O)CCCCc1nnnn1-c1ccccc1)C1CCCCC1 [Compound 4, N-Ethyl-N-cyclohexyl-5-(1-phenyl-1,2,3,4-tetrazol-5-yl)valeramide] | ++ (more than 60%) |  |  | > 500 mg/kg | 10 to 50% | 10 to 50% | 10 to 50% | 
24 | CCN(C(=O)CCCSc1nnnn1C)c1ccccc1 [Compound 9, N-Ethyl-N-phenyl-4-(1-methyl-1,2,3,4-tetrazol-5-yl)thio-butyramide] |  |  | + (30 to less than 60%) | > 500 mg/kg |  |  |  | 
25 | COC1CCC(NC(=O)CCCSc2nnnn2C)CC1 (centres unmarked) [Compound 45, N-(4-Methoxycyclohexyl)-4-(1-methyl-1,2,3,4-tetrazol-5-yl)thio-butyramide] |  | ++ (more than 60%) |  |  |  |  | 10 to 50% | 
